Measured values: ChEMBL document CHEMBL5370655
Active and inactive are the calls of the source. The calls are words filed in the database; no cut-off is given here.

Experiments:
[1] = Toxicity in BALB/c mouse xenografted with human H1975-TM cells assessed as appearance of lesions in lung at 25 to 100 mg/kg, po measured after 25 days by hematoxylin-eosin staining based analysis; format: organism-based; settings: in vivo, 600 h, dose 25-100 mg/kg, time 25 day
[2] = biological target: Epidermal growth factor receptor (Homo sapiens, UniProt P00533)
Description: Inhibition of wild-type EGFR (unknown origin) using polyE4Y1 as substrate incubated for 5 mins with compound followed by substrate addition measured after 60 mins in presence of ATP by ADP-Glo reagent based assay

[3] = Antitumor activity against human H1975-TM cells xenografted in BALB/c mouse assessed as tumor growth inhibition at 100 mg/kg, po measured after 25 days; format: functional; settings: time 25 day
[4] = Induction of cell cycle arrest in human H1975-TM cells assessed as accumulation at G0/G1 phase at 500 nM measured after 24 hrs by RNase A/propidium iodide staining based flow cytometric analysis (reference value: 64.3 %); format: functional
[5] = AUC (0 to infinity) in Sprague-Dawley rat at 50 mg/kg, po measured upto 24 hrs by HPLC-MS/MS analysis; format: ADME, organism-based; set-up: dose 50 mg/kg, time < 24 hrs, route po; settings: in vivo
[6] = MRT (0 to infinity) in Sprague-Dawley rat at 50 mg/kg, po measured upto 24 hrs by HPLC-MS/MS analysis; format: ADME, organism-based; settings: in vivo
[7] = Toxicity in BALB/c mouse xenografted with human H1975-TM cells assessed as change in body weight at 25 to 100 mg/kg, po measured after 25 days; format: organism-based; settings: in vivo, 600 h, dose 25-100 mg/kg, time 25 day
[8] = Antitumor activity against human H1975-TM cells xenografted in BALB/c mouse assessed as tumor growth inhibition at 25 mg/kg, po measured after 25 days; format: functional; settings: time 25 day
H1975-TM [9] = assay: Downregulation of EGFR phosphorylation in human H1975-TM cells at 50 to 1000 nM measured after 24 hrs by Western blot analysis; format: functional, cell-based; settings: dose 50-1000 nM
[10] = Half life in Sprague-Dawley rat at 50 mg/kg, po measured upto 24 hrs by HPLC-MS/MS analysis; format: ADME, organism-based; settings: in vivo
[11] = biological target: T1, Epidermal growth factor receptor (Homo sapiens, UniProt P00533, C797S/L858R/T790M)
H1975-TM [12] = settings: Homo sapiens, dose 10-500 nM, time 10.0 day
[13] = biological target: Epidermal growth factor receptor (Homo sapiens, UniProt P00533, C797S/EX19DEL/T790M)
[14] = biological target: Epidermal growth factor receptor (Homo sapiens, UniProt P00533, L858R)
PC-9 [15] = assay: Antiproliferative activity against human PC-9 cells assessed as inhibition of cell growth measured after 72 hrs by CCK8 assay; format: functional, cell-based; settings: PC-9, 72 h
[16] = Tmax in Sprague-Dawley rat at 50 mg/kg, po measured upto 24 hrs by HPLC-MS/MS analysis; format: ADME, organism-based; settings: in vivo
[17] = Induction of apoptosis in human H1975-TM cells assessed as apoptotic cells at 250 nM measured after 24 by Annexin V-FITC and propidium iodide staining based flow cytometric analysis (reference value: 7.08 %); format: functional; settings: time 24 hrs
[18] = Half life in Sprague-Dawley rat at 5 mg/kg, iv measured upto 24 hrs by HPLC-MS/MS analysis; format: ADME, organism-based; settings: in vivo
[19] = MRT (0 to infinity) in Sprague-Dawley rat at 5 mg/kg, iv measured upto 24 hrs by HPLC-MS/MS analysis; format: ADME, organism-based; settings: in vivo
[20] = Induction of apoptosis in human H1975-TM cells assessed as apoptotic cells at 50 nM measured after 24 by Annexin V-FITC and propidium iodide staining based flow cytometric analysis (reference value: 7.08 %); format: functional; settings: time 24 hrs
[21] = Tmax in Sprague-Dawley rat at 5 mg/kg, iv measured upto 24 hrs by HPLC-MS/MS analysis; format: ADME, organism-based; settings: in vivo
[22] = Toxicity in BALB/c mouse xenografted with human H1975-TM cells assessed as appearance of lesions in heart at 25 to 100 mg/kg, po measured after 25 days by hematoxylin-eosin staining based analysis; format: organism-based; settings: in vivo, 600 h, dose 25-100 mg/kg, time 25 day
[23] = Induction of apoptosis in human H1975-TM cells assessed as apoptotic cells at 500 nM measured after 24 by Annexin V-FITC and propidium iodide staining based flow cytometric analysis (reference value: 7.08 %); format: functional; settings: time 24 hrs
A-431 = assay: Antiproliferative activity against human A-431 cells assessed as inhibition of cell growth measured after 72 hrs by CCK8 assay; format: functional, cell-based; settings: A-431, 72 h
[24] = Induction of cell cycle arrest in human H1975-TM cells assessed as accumulation at S phase at 50 nM measured after 24 hrs by RNase A/propidium iodide staining based flow cytometric analysis (reference value: 18.1 %); format: functional
H1975-TM [25] = assay: Downregulation of AKT level in human H1975-TM cells at 50 to 1000 nM measured after 24 hrs by Western blot analysis; format: functional, cell-based; settings: dose 50-1000 nM
[26] = Induction of cell cycle arrest in human H1975-TM cells assessed as accumulation at G0/G1 phase at 250 nM measured after 24 hrs by RNase A/propidium iodide staining based flow cytometric analysis (reference value: 64.3 %); format: functional
[27] = Cmax in Sprague-Dawley rat at 50 mg/kg, po measured upto 24 hrs by HPLC-MS/MS analysis; format: ADME, organism-based; set-up: dose 50 mg/kg, time < 24 hrs, route po; settings: in vivo
[28] = biological target: Epidermal growth factor receptor (Homo sapiens, UniProt P00533, L858R/T790M); assay: Inhibition of EGFR L858R/T790M double mutant (unknown origin) using polyE4Y1 as substrate incubated for 5 mins with compound followed by substrate addition measured after 60 mins in presence of ATP by ADP-Glo reagent based assay
PC-9 [29] = format: functional, cell-based; settings: Homo sapiens, PC-9, 72 h
[30] = Toxicity in BALB/c mouse xenografted with human H1975-TM cells assessed as appearance of lesions in kidney at 25 to 100 mg/kg, po measured after 25 days by hematoxylin-eosin staining based analysis; format: organism-based; settings: in vivo, 600 h, dose 25-100 mg/kg, time 25 day
[31] = Cmax in Sprague-Dawley rat at 5 mg/kg, iv measured upto 24 hrs by HPLC-MS/MS analysis; format: ADME, organism-based; set-up: time < 24 hrs, dose 5 mg/kg, route iv; settings: in vivo
[32] = AUC (0 to infinity) in Sprague-Dawley rat at 5 mg/kg, iv measured upto 24 hrs by HPLC-MS/MS analysis; format: ADME, organism-based; set-up: dose 5 mg/kg, time < 24 hrs, route iv; settings: in vivo
[33] = biological target: T1, Epidermal growth factor receptor; remark: listed apart in the source
[34] = Induction of cell cycle arrest in human H1975-TM cells assessed as accumulation at G2/M phase at 500 nM measured after 24 hrs by RNase A/propidium iodide staining based flow cytometric analysis (reference value: 17.6 %); format: functional
[35] = Induction of cell cycle arrest in human H1975-TM cells assessed as accumulation at G0/G1 phase at 50 nM measured after 24 hrs by RNase A/propidium iodide staining based flow cytometric analysis (reference value: 64.3 %); format: functional
[36] = Toxicity in BALB/c mouse xenografted with human H1975-TM cells assessed as appearance of lesions in spleen at 25 to 100 mg/kg, po measured after 25 days by hematoxylin-eosin staining based analysis; format: organism-based; settings: in vivo, 600 h, dose 25-100 mg/kg, time 25 day

T1 sequence (P00533 25-1210 T790M/C797S/L858R limits assumed): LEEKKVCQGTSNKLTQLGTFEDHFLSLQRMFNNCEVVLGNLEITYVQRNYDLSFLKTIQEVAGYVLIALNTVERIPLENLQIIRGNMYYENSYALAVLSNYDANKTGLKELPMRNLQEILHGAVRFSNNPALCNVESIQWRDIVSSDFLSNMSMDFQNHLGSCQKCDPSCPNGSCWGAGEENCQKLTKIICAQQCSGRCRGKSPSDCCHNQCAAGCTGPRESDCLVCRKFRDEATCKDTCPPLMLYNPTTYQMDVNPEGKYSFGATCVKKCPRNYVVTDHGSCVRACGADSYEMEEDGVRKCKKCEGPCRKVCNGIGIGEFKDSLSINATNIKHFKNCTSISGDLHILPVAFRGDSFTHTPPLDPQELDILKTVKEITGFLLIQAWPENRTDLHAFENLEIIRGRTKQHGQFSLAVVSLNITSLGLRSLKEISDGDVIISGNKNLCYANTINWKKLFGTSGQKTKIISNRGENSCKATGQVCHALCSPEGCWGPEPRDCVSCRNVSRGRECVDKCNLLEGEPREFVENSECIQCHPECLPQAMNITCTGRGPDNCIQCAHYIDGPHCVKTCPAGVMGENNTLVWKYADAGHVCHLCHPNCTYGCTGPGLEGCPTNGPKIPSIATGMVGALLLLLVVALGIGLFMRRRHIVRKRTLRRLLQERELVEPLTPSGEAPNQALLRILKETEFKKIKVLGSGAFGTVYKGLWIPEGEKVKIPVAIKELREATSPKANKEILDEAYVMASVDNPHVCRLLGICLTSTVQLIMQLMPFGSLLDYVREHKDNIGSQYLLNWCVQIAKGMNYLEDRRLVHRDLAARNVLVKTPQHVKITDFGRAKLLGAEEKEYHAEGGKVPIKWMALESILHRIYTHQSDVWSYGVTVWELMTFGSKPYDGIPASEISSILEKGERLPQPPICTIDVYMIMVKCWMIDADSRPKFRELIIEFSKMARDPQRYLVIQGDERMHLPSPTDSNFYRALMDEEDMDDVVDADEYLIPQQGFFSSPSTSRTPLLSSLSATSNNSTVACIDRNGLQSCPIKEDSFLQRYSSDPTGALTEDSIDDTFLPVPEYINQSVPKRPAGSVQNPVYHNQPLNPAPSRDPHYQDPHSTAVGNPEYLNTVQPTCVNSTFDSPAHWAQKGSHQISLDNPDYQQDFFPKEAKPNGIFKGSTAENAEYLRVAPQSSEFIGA
Sequence of Epidermal growth factor receptor (Homo sapiens, UniProt P00533) (P00533 whole entry): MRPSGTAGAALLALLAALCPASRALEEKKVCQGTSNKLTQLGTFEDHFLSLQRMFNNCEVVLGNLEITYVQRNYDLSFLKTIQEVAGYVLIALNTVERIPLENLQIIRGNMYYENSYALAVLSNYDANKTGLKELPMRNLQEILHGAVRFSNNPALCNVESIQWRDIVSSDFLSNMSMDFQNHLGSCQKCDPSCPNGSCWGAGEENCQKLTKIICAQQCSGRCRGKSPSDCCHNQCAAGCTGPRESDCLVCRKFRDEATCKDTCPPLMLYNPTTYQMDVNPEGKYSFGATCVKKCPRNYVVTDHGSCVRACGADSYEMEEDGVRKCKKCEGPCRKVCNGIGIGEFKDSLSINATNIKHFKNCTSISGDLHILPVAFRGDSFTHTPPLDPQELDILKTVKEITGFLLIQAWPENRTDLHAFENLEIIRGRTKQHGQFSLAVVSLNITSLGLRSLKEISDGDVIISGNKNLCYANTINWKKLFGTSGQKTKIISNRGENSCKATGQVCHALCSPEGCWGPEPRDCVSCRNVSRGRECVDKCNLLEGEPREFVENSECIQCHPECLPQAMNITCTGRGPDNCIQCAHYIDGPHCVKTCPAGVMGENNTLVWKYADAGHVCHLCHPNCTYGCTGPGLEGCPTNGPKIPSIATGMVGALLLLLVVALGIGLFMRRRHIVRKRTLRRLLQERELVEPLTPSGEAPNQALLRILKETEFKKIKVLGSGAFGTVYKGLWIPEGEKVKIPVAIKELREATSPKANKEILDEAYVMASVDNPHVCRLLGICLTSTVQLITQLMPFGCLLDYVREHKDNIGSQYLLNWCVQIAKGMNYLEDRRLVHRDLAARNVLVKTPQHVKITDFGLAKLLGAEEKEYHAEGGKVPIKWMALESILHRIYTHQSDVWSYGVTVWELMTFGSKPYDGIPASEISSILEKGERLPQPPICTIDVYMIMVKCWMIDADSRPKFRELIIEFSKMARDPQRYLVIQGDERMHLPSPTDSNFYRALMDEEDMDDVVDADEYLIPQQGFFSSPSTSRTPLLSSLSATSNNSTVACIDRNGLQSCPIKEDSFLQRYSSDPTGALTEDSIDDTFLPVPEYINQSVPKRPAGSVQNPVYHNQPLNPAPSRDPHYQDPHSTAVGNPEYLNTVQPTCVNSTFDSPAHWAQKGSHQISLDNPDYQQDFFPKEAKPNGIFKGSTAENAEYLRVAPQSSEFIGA
Sequence of Epidermal growth factor receptor (Homo sapiens, UniProt P00533, C797S/EX19DEL/T790M) (P00533 whole entry, looked up, stated change not applied): as the sequence (P00533 whole entry) above
Sequence of Epidermal growth factor receptor (Homo sapiens, UniProt P00533, L858R/T790M) (P00533 25-1210 T790M/L858R limits assumed): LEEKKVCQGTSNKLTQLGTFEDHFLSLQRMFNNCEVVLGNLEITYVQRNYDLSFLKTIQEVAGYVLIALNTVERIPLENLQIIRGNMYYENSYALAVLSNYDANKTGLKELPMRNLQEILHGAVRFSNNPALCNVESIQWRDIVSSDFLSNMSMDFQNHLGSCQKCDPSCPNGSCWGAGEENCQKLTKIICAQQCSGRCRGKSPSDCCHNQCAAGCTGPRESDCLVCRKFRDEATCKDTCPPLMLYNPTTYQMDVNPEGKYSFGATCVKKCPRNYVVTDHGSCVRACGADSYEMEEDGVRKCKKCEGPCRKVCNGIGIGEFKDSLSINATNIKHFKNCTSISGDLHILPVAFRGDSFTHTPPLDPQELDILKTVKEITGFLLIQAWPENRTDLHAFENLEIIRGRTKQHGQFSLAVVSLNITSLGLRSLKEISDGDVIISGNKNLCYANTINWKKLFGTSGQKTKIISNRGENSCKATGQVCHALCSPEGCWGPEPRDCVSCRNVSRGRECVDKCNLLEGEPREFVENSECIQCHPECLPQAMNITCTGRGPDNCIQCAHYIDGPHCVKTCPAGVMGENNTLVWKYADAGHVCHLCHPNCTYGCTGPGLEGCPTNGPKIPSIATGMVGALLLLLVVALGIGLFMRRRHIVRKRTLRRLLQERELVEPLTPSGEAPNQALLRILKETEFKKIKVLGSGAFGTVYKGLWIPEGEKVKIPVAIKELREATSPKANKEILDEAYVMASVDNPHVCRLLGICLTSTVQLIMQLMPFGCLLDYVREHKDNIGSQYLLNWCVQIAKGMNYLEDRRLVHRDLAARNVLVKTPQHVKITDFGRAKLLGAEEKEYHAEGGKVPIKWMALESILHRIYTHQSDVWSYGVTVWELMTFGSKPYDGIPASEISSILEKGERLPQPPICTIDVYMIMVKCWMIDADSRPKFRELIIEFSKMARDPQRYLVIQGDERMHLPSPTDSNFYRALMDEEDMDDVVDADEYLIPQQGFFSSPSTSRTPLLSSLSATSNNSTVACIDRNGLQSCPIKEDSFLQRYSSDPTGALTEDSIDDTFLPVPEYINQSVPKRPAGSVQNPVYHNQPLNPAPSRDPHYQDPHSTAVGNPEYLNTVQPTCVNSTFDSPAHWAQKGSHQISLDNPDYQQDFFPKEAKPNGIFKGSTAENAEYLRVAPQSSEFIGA

Compound: CCS(=O)(=O)N1CCC(c2nc(-c3ccc(F)cc3)c(-c3ccnc(Nc4ccc5c(ccn5CCN(C)C)c4)n3)s2)CC1
- Activity [1]: Non-Toxic
- IC50 [2]: 106 nM
- TGI [3]: 62.9%
- Activity [4]: 76.3%
- AUC(0-inf) [5]: 4780 ng·h/mL
- MRT inf [6]: 5.43 h
- Activity [7]: Non-Toxic
- TGI [8]: 47.5%
- Activity (H1975-TM [9]): Active
- half-life [10]: 8.49 h
- IC50 [11]: 261 nM
- inhibition (H1975-TM [12]): Dose-Dependent Effect
- IC50 [13]: 33 nM
- IC50 [14]: 3 nM
- IC50 (PC-9 [15]): 5 nM
- Tmax [16]: 2 h
- Activity [17]: 19.88%
- half-life [18]: 4.7 h
- MRT inf [19]: 4.37 h
- Activity [20]: 19.07%
- Tmax [21]: 4.8 min
- Activity [22]: Non-Toxic
- Activity [23]: 27.8%
- IC50 (A-431): 1400 nM
- Activity [24]: 17.3%
- Activity (H1975-TM [25]): Active
- Activity [26]: 70.3%
- Cmax [27]: 404 ng/mL
- IC50 [28]: 21 nM
- IC50 (PC-9 [29]): 30 nM
- Activity [30]: Non-Toxic
- Cmax [31]: 761 ng/mL
- AUC(0-inf) [32]: 1560 ng·h/mL
- IC50 [33]: 5.1 nM
- Activity [34]: 13.4%
- Activity [35]: 68.3%
- Activity [36]: Non-Toxic
